{
  "source": "patent US20080119548A1",
  "about": "“Control Of Feeding Behavior By Changing Neuronal Energy Balance” (priority 2004, published 2008)",
  "key": {"[1]": {"experiment": "Changes in bodyweight 24 hr after i.c.v. injection", "format": "in vivo, mice", "conditions": "C75 10 μg i.c.v.", "from_the_text": "(d) Changes in bodyweight 24 hr after i.c.v. injection of C75, AICAR or compound C (n=4-10). Mice were implanted with permanent stainless steel cannulae into the lateral ventricle of the brain 0.6 mm caudal to Bregma, 1.2 mm lateral to the midline, and sunk to a depth of 2.2 mm below the surface of the skull. Implanted mice were housed in individual cages and utilized for i.c.v. and i.p. injections as indicated. C75 dissolved in RPMI1640 (Gibco-BRL), AICAR (Toronto Research Chemicals Inc) or compound […], Inc.) in saline was injected i.c.v., such that desired dose could be administered in a volume of 2.5 μl, while control groups received vehicle only. Injections were done immediately preceding dark onset and food intake measurements were taken at 1 hr (0-1 hr interval), 3 hr (1-3 hr interval), and 24 hr (3-24 hr interval) after dark onset. […]. treatment groups were i.p. injected with 5 mg/kg bodyweight C75 dissolved in […] of glucose-free RPMI 1 hr before the dark onset, followed by 3 μg/2.5 μl saline i.c.v. AICAR immediately preceding the dark onset. Control groups received 200 μl of glucose free RPMI 1 hr before lights off and 2.5 μl of saline. Administration of i.p. compound C (10 or 30 mg/kg bodyweight) or C75 (10 mg/kg bodyweight) was followed by food intake measurement at the same times indicated."}, "[2]": {"test_system": "hypothalamic AMPKα (α1 and α2)", "experiment": "Western blot of phosphorylated AMPKα in hypothalamus", "format": "in vivo, mice", "conditions": "for reduction of levels of pAMPKα (α1 and α2) in the hypothalamus vs vehicle: C75 i.c.v. (5 μg or 10 mg)", "description": "(§1) Hypothalami were dissected using as landmarks the optic chiasm rostrally, and the mammillary bodies caudally to a depth of 2 mm. Dissected hypothalamic and liver tissue were immediately frozen in liquid nitrogen. Tissues were homogenized in 200 μl of lysis buffer (50 mM Tris-HCl, pH 7.5, 250 mM sucrose, 5 mM sodium pyrophosphate, 50 mM NaF, 1 mM EDTA, 1 mM EGTA, 1 mM DTT, 0.5 mM PMSF, 0.1 mM benzamidine, 50 μg/ml leupeptin, 50 μg/ml soybean trypsin inhibitor). SDS detergent was added to a final 0.2%, and lysates were boiled for 5 min. After the supernatant was harvested, protein concentration was determined by BCA kit (Bio Rad). Phosphorylation of AMPKα was determined on a 4-15% gradient SDS-polyacrylamide gel using anti-phospho-AMPKα (α1 and α2, Thr172) antibody (1:1000, Cell Signaling). Anti-AMPKαt antibody (α1 and α2, 1:1000, Cell Signaling) was used as a loading control."}, "liver AMPKα": {"test_system": "liver AMPKα", "experiment": "Western blot of phosphorylated AMPKα in liver", "format": "in vivo, mice", "conditions": "C75 i.p.", "description": "as §1"}, "[3]": {"test_system": "primary hypothalamic neurons", "experiment": "ATP measurement in primary hypothalamic neuron cultures", "format": "cell-based, Sprague-Dawley rats", "description": "Hypothalami were dissected from E17 Sprague-Dawley rats (Harlan), and dissociated by trypsin (0.125%)-DNA (0.001%) solution and trituration as described by Landree, et al., J. Biol. Chem., 279, 3817-3827. Cells were plated at 6×10^4 on poly-D-lysine coated 96 well plates (Corning Inc.) in neurobasal medium supplemented with B27, 0.5 mM L-glutamine, 1% penicillin-streptomycin (Gibco-BRL). To limit nonneuronal cell proliferation, cells were treated with cytosine arabinoside furanoside (1 μM) on day 4 after plating and 6-8 days-old cells were assayed for ATP. Hypothalamic neurons were lysed in TE (100 mM Tris-HCl, pH 7.4, 4 mM DTA), and ATP levels were measured within the linear range using the ATP BioLuminescence Kit CLSII (Roche) by following the manufacture's recommendation. Data were analyzed by a Perkin-Elmer Victor^2 1420."}, "NPY mRNA": {"test_system": "NPY mRNA", "experiment": "In situ hybridization of NPY in the arcuate nucleus", "format": "in vivo", "conditions": "C75-treated (24 hr) mice", "description": "Anti-sense DIG-labeled NPY riboprobe was generated from a plasmid containing the NPY gene (XM004941). […] For double fluorescent in situ hybridization, DIG-labeled riboprobe was generated from plasmid containing AMPKα2 gene (pEBGα2, a gift from L. A. Witters) for AMPKα2 (FITC) and biotin-labeled riboprobe was used for NPY (Texas Red). Sheep FITC-conjugated anti-DIG antibody (1:50, Roche) was incubated in TNB buffer (100 mM Tris-HCl pH 7.5, 150 mM NaCl, and 0.5% blocking reagent) for FITC detection. Streptavidin-Texas Red (1:50, Amersham Pharmacia), rabbit anti-Texas Red antibody (1:50, Molecular Probes), goat biotin-conjugated anti-rabbit IgG antibody (1:50, Santa Cruz Biotechnology) and streptavidin-Texas Red (1:30) were incubated serially in TNB buffer for Texas Red detection.\nImages of in situ hybridization and immunohistochemistry were visualized using an Axiocam HRc digital camera (Carl Zeiss) and images were acquired using Improvision Openlab software, and quantified by NIH Image program (Macro)."}, "[4]": {"test_system": "lean, diet-induced obese (DIO), and genetically obese (ob/ob) mice", "conditions": "cited from earlier work"}},
  "data": [
    {"compound": "C=C1C(=O)OC(CCCCCCCC)C1C(=O)O", "note": "(stereo not drawn) [C75]", "values": [
      {"measurement": "bodyweight", "setting": "[1]", "result": "reduction in body weight"},
      {"measurement": "level of hypothalamic pAMPKα in fasted mice", "setting": "[2]; 24 hr fasting, then C75 i.p. (10 mg/kg bodyweight), vs RPMI control", "result": "profoundly reduced"},
      {"measurement": "levels of pAMPKα in the hypothalamus", "setting": "[2]; C75 10 mg/kg body weight i.p., 30 min and 3 hr", "result": "significantly reduced"},
      {"measurement": "reduction of levels of pAMPKα (α1 and α2) in the hypothalamus vs vehicle", "setting": "[2]; 30 min", "result": "three"},
      {"measurement": "reduction of levels of pAMPKα (α1 and α2) in the hypothalamus vs vehicle", "setting": "[2]; 3 hr", "result": "six-fold"},
      {"measurement": "hypothalamic pAMPKα level", "setting": "[2]; i.p. C75 and i.c.v. saline, 30 min after i.c.v. injection", "result": "profound decrease"},
      {"measurement": "pAMPKα levels in the liver", "setting": "liver AMPKα; 30 min after administration", "result": "little effect"},
      {"measurement": "pAMPKα levels in the liver", "setting": "liver AMPKα; 3 hr", "result": "increased pAMPKα levels"},
      {"measurement": "neuronal ATP levels, % of control", "setting": "[3]; 40 mg/ml C75, 30 min", "result": "118 % of control"},
      {"measurement": "neuronal ATP levels, % of control", "setting": "[3]; 40 mg/ml C75, 2 hr", "result": "128 % of control"},
      {"measurement": "NPY mRNA expression in the arcuate nucleus, % of control", "setting": "NPY mRNA", "result": "66 % of control"},
      {"measurement": "weight loss and anorexia", "setting": "[4]", "result": "profound weight loss and anorexia"}
    ]}
  ]
}
